Results from US20220062240A1, “METHODS OF TREATING CANCER USING A CLK INHIBITOR” (BioSplice Therapeutics, Inc., priority 2018, published 2022).
Where two headings read alike, the source gives them in different places. Each block holds one molecule with its values, some of them ahead of it.

What was measured:
[1] = target: CLK3 (Homo sapiens, UniProt P49761); assay: CLK3 kinase activity assay (Z-lyte, Ser/Thr 18 peptide)
[2] = test system: pancreatic cancer (8 cell lines); assay: CellTiter-Glo Viability Assay, pancreatic cancer; assay type: cell-based; settings: Homo sapiens, inhibition of cancer cell proliferation
[3] = test system: ovarian cancer (4 cell lines); assay: CellTiter-Glo Viability Assay, ovarian cancer; assay type: cell-based; settings: Homo sapiens, inhibition of cancer cell proliferation
[4] = test system: CAMA1; assay: CellTiter-Glo Viability Assay, breast cancer; assay type: cell-based; settings: Homo sapiens, CAMA-1, 96 h; CAMA1, breast cancer, four days; read-out: EC50
[5] = test system: DU4475; assay: CellTiter-Glo Viability Assay, breast cancer; assay type: cell-based; settings: Homo sapiens, DU-4475, 96 h; DU4475, breast cancer, four days; read-out: EC50
[6] = test system: MDA-MB-231-Luc; assay: CellTiter-Glo Viability Assay, breast cancer; assay type: cell-based; settings: Homo sapiens, 96 h; MDA-MB-231-Luc, breast cancer, four days; read-out: EC50
[7] = test system: MCF7; assay: CellTiter-Glo Viability Assay, breast cancer; assay type: cell-based; settings: Homo sapiens, 96 h; MCF7, breast cancer, four days; read-out: EC50
[8] = test system: ZR-75-1; assay: CellTiter-Glo Viability Assay, breast cancer; assay type: cell-based; settings: Homo sapiens, 96 h; ZR-75-1, breast cancer, four days; read-out: EC50
[9] = test system: T47D; assay: CellTiter-Glo Viability Assay, breast cancer; assay type: cell-based; settings: Homo sapiens, 96 h, breast cancer, four days, read-out: EC50
[10] = test system: HCC1599; assay: CellTiter-Glo Viability Assay, breast cancer; assay type: cell-based; settings: Homo sapiens, 96 h; HCC1599, breast cancer, four days; read-out: EC50
[11] = test system: BT-549; assay: CellTiter-Glo Viability Assay, breast cancer; assay type: cell-based; settings: Homo sapiens, 96 h; BT-549, breast cancer, four days; read-out: EC50
[12] = test system: all 50 cell lines; assay: CellTiter-Glo Viability Assay, average across all cell lines; assay type: cell-based; settings: Homo sapiens; across all 50 cell lines; read-out: average EC50 for inhibition of cancer cell proliferation
Procedure, shortened: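 Luminescent ATP read-out (CellTiter-Glo) after a 4-day compound exposure at 37° C served as the viability measure. Cells were seeded at 300-3,000/well, compound wells run in duplicate against DMSO controls, and EC50 values came from fitted dose-response curves.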

[13] = test system: liver cancer (3 cell lines); assay: CellTiter-Glo Viability Assay, liver cancer; assay type: cell-based; settings: Homo sapiens, inhibition of cancer cell proliferation
[14] = test system: colorectal cancer (6 cell lines); assay: CellTiter-Glo Viability Assay, colorectal cancer; assay type: cell-based; settings: Homo sapiens, inhibition of cancer cell proliferation
[15] = test system: lung cancer (4 cell lines); assay: CellTiter-Glo Viability Assay, lung cancer; assay type: cell-based; settings: Homo sapiens, inhibition of cancer cell proliferation
[16] = test system: prostate cancer (5 cell lines); assay: CellTiter-Glo Viability Assay, prostate cancer; assay type: cell-based; settings: Homo sapiens
[17] = target: T1, CLK2 (Homo sapiens, UniProt P49760); assay: CLK2 kinase activity assay (Z-lyte, Ser/Thr 6 peptide); assay type: biochemical; settings: recombinant CLK2 kinase, ATP 60 μM; read-out: EC50
T1 construct: purchased Thermo Fisher (Life Technologies), Z'-LYTE Kinase Assay Kits
T1 sequence (P49760 whole entry): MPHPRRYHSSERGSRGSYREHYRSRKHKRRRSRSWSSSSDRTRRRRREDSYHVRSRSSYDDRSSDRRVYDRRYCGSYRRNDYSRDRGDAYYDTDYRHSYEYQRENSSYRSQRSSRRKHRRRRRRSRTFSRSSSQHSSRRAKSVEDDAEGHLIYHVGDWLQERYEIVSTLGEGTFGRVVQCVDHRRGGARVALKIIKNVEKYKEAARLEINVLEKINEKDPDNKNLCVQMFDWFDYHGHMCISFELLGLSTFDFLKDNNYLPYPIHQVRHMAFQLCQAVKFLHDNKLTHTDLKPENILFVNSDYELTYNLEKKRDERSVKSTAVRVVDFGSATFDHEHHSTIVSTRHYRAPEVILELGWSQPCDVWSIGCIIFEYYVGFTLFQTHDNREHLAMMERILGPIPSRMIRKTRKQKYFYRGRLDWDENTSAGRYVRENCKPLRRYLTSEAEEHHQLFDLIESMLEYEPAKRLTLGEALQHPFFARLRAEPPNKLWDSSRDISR
Experimental: All reactions were performed in duplicate.

[18] = test system: haematopoietic & lymphoid tumors (13 cell lines); assay: CellTiter-Glo Viability Assay, haematopoietic & lymphoid tumors; assay type: cell-based; settings: Homo sapiens, inhibition of cancer cell proliferation
[19] = BXPC-3, BxPC3 cell line, read-out: Pancreatic cancer, EC50 BxPC3
[20] = CAPAN-1, Capan1 cell line, read-out: Pancreatic cancer, EC50 Capan1
[21] = Capan-2, Capan2 cell line, read-out: Pancreatic cancer, EC50 Capan2
[22] = MIA PaCa-2 cell line, read-out: Pancreatic cancer, EC50 MIA PaCa-2
[23] = PANC 05.04 cell line, read-out: Pancreatic cancer, EC50 PANC 05.04
[24] = PANC-1 cell line, read-out: Pancreatic cancer, EC50 PANC-1
[25] = UPAFII cell line, read-out: Pancreatic cancer, EC50 UPAFII
[26] = PA-1, PA1 cell line, read-out: Ovarian cancer, EC50 (μM) PA1
[27] = TOV112D, TOV-112D cell line, read-out: Ovarian cancer, EC50 (μM) TOV-112D
[28] = OV-90 cell line, read-out: Ovarian cancer, EC50 (μM) OV-90
[29] = OVCAR-3 cell line, read-out: Ovarian cancer, EC50 (μM) OVCAR-3
[30] = SNU-398, SNU398 cell line, read-out: Liver cancer, EC50 SNU398
[31] = HEPG2 cell line, read-out: Liver cancer, EC50 HEPG2
[32] = PLC/PRF/5 cell line, read-out: Liver cancer, EC50 PLC/PRF/5
[33] = HCT-116, HCT116 cell line, read-out: Colorectal cancer, EC50 (μM) HCT116
[34] = HT-29, HT29 cell line, read-out: Colorectal cancer, EC50 (μM) HT29
[35] = SW-620, SW620 cell line, read-out: Colorectal cancer, EC50 (μM) SW620
[36] = DLD-1 cell line, read-out: Colorectal cancer, EC50 (μM) DLD-1
[37] = SW48 cell line, read-out: Colorectal cancer, EC50 (μM) SW48
[38] = SW480 cell line, read-out: Colorectal cancer, EC50 (μM) SW480
[39] = A-427, A427 cell line, read-out: Lung cancer, EC50 (μM) A427
[40] = HCC78, HCC-78 cell line, read-out: Lung cancer, EC50 (μM) HCC-78
[41] = NCI-H460 cell line, read-out: Lung cancer, EC50 (μM) NCI-H460
[42] = NCI-H522 cell line, read-out: Lung cancer, EC50 (μM) NCI-H522
[43] = DU-145, read-out: Prostate cancer EC50 Du-145
[44] = PC-3, PC3 cell line, inhibition of cancer cell proliferation, read-out: Prostate cancer EC50 PC3
[45] = 22Rv1 cell line, inhibition of cancer cell proliferation, read-out: Prostate cancer EC50 22Rv1
[46] = LNCap clone FGC cell line, inhibition of cancer cell proliferation, read-out: Prostate cancer EC50 LNCap clone FGC
[47] = VCaP (Sigma) cell line, inhibition of cancer cell proliferation, read-out: Prostate cancer EC50 VCaP (Sigma)
[48] = DND41, DND-41 cell line, read-out: Haematopoietic & Lymphoid tumors, EC50 (μM) DND-41
[49] = MV4-11, MV-4-11 cell line, read-out: Haematopoietic & Lymphoid tumors, EC50 (μM) MV-4-11
[50] = Rec1, REC-1 cell line, read-out: Haematopoietic & Lymphoid tumors, EC50 (μM) REC-1
[51] = SU-DHL-4, SUDHL4 cell line, read-out: Haematopoietic & Lymphoid tumors, EC50 (μM) SUDHL4
[52] = HL-60 cell line, read-out: Haematopoietic & Lymphoid tumors, EC50 (μM) HL-60
[53] = JM1 cell line, read-out: Haematopoietic & Lymphoid tumors, EC50 (μM) JM1
[54] = JURKAT, Clone E6-1 cell line, read-out: Haematopoietic & Lymphoid tumors, EC50 (μM) JURKAT, Clone E6-1
[55] = JeKo-1 cell line, read-out: Haematopoietic & Lymphoid tumors, EC50 (μM) JeKo-1
[56] = KASUMI-1 cell line, read-out: Haematopoietic & Lymphoid tumors, EC50 (μM) KASUMI-1
[57] = Loucy cell line, read-out: Haematopoietic & Lymphoid tumors, EC50 (μM) Loucy
[58] = MOLT-4 cell line, read-out: Haematopoietic & Lymphoid tumors, EC50 (μM) MOLT-4
[59] = TF-1 cell line, read-out: Haematopoietic & Lymphoid tumors, EC50 (μM) TF-1
[60] = TOLEDO cell line, read-out: Haematopoietic & Lymphoid tumors, EC50 (μM) TOLEDO

CLK3, sequence (P49761 whole entry): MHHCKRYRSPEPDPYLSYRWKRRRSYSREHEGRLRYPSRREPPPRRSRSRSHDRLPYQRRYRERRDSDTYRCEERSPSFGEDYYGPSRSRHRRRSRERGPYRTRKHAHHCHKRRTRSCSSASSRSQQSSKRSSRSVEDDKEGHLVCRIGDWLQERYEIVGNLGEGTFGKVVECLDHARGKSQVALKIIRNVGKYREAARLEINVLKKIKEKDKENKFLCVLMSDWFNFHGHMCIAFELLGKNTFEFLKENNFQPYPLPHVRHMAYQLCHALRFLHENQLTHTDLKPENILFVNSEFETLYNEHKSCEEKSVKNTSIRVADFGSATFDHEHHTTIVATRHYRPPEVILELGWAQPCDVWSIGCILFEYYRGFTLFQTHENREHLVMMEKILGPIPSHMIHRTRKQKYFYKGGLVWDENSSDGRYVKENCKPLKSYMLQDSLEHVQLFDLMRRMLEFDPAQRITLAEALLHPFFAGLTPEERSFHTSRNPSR

EC50 [1]: 24.5 nM
EC50 [2, 19]: 940 nM
EC50 [2, 20]: 702 nM
EC50 [2, 21]: 1140 nM
EC50 [2, 22]: 461 nM
EC50 [2, 23]: 713 nM
EC50 [2, 24]: 1220 nM
EC50 [2, 25]: 385 nM
EC50 [3, 26]: 0.585 µM
EC50 [3, 27]: 0.593 µM
EC50 [3, 28]: 1.45 µM
EC50 [3, 29]: 0.37 µM
EC50 [4]: 788 nM
EC50 [5]: 624 nM
EC50 [6]: 891 nM
EC50 [7]: 2150 nM
EC50 [8]: 1120 nM
EC50 [9]: 1350 nM
EC50 [10]: 510 nM
EC50 [11]: 496 nM
EC50 [13, 30]: 205 nM
EC50 [13, 31]: 750 nM
EC50 [13, 32]: 1470 nM
EC50 [14, 33]: 0.465 µM
EC50 [14, 34]: 1.09 µM
EC50 [14, 35]: 0.352 µM
EC50 [14, 36]: 0.481 µM
EC50 [14, 37]: 0.285 µM
EC50 [14, 38]: 0.739 µM
EC50 [15, 39]: 0.605 µM
EC50 [15, 40]: 1.12 µM
EC50 [15, 41]: 1.13 µM
EC50 [15, 42]: 0.389 µM
EC50 [16, 43]: 806 nM
EC50 [16, 44]: 701 nM
EC50 [16, 45]: 612 nM
EC50 [16, 46]: 1080 nM
EC50 [16, 47]: 1060 nM
EC50 [17]: 1.6 nM
EC50 [18, 48]: 0.774 µM
EC50 [18, 49]: 0.193 µM
EC50 [18, 50]: 0.189 µM
EC50 [18, 51]: 0.899 µM
EC50 [18, 52]: 1.24 µM
EC50 [18, 53]: 0.273 µM
EC50 [18, 54]: 0.863 µM
EC50 [18, 55]: 0.347 µM
EC50 [18, 56]: 0.555 µM
EC50 [18, 57]: 0.617 µM
EC50 [18, 58]: 0.643 µM
EC50 [18, 59]: 0.785 µM
EC50 [18, 60]: 0.25 µM
SMILES: CN(C)C1CN(c2cc(C(=O)Nc3cc4cc(-c5cnn(C)c5)ccc4cn3)ccn2)C1 [Compound 70]
EC50 [12]: 750 nM

EC50 [1]: 16.2 nM
EC50 [2, 19]: 383 nM
EC50 [2, 20]: 225 nM
EC50 [2, 21]: 344 nM
EC50 [2, 22]: 90 nM
EC50 [2, 23]: 289 nM
EC50 [2, 24]: 352 nM
EC50 [2, 25]: 140 nM
EC50 [3, 26]: 0.209 µM
EC50 [3, 27]: 0.117 µM
EC50 [3, 28]: 0.334 µM
EC50 [3, 29]: 0.092 µM
EC50 [4]: 307 nM
EC50 [5]: 140 nM
EC50 [6]: 292 nM
EC50 [7]: 860 nM
EC50 [8]: 365 nM
EC50 [9]: 493 nM
EC50 [10]: 177 nM
EC50 [11]: 215 nM
EC50 [13, 30]: 48 nM
EC50 [13, 31]: 165 nM
EC50 [13, 32]: 459 nM
EC50 [14, 33]: 0.105 µM
EC50 [14, 34]: 0.247 µM
EC50 [14, 35]: 0.068 µM
EC50 [14, 36]: 0.137 µM
EC50 [14, 37]: 0.052 µM
EC50 [14, 38]: 0.145 µM
EC50 [15, 39]: 0.198 µM
EC50 [15, 40]: 0.304 µM
EC50 [15, 41]: 0.248 µM
EC50 [15, 42]: 0.095 µM
EC50 [16, 43]: 252 nM
EC50 [16, 44]: 205 nM
EC50 [16, 45]: 232 nM
EC50 [16, 46]: 333 nM
EC50 [16, 47]: 466 nM
EC50 [17]: 1.1 nM
EC50 [18, 48]: 0.191 µM
EC50 [18, 49]: 0.056 µM
EC50 [18, 50]: 0.061 µM
EC50 [18, 51]: 0.208 µM
EC50 [18, 52]: 0.432 µM
EC50 [18, 53]: 0.054 µM
EC50 [18, 54]: 0.431 µM
EC50 [18, 55]: 0.062 µM
EC50 [18, 56]: 0.129 µM
EC50 [18, 57]: 0.146 µM
EC50 [18, 58]: 0.2 µM
EC50 [18, 59]: 0.368 µM
EC50 [18, 60]: 0.073 µM
SMILES: CN1CCC2(CC1)CN(c1cc(C(=O)Nc3cc4cc(-c5cnn(C)c5)ccc4cn3)ccn1)C2 [Compound 71]
EC50 [12]: 232 nM
